In patent publication US20220204502A1, “CRYSTAL POLYMORPHISM OF PI3K INHIBITOR AND METHOD FOR PREPARING SAME” (BORYUNG PHARMACEUTICAL CO., LTD, priority 2019, published 2022):

Columns and labels:
[1] = Long-term stability test; type: physicochemical; conditions: for Content / Individual impurity / Total impurity / Crystal form: 25±2° C. and RH 6θ±5%; for Content / Individual impurity / Total impurity: capsule in PTP packing, wt %
Description: The powder of the crystal form I compound according to above Example 8 was doubly packed with an LDPE bag, then packed with a paperboard tube, and filled into a capsule, after which the capsule was subjected to PTP packing to carry out a long-term stability test (25±2° C. and RH 6θ±5%).

[2] = Pharmacokinetic (PK) test, oral capsule in beagle dog; type: in vivo; conditions: 100 mg oral, powder in capsule
Description: A pharmacokinetic (PK) experiment was performed on the crystal form I compound according to Example 8.
The powder of the crystal form I compound of Example 8 was filled into a capsule in an amount of 100 mg, and the capsule was orally administered to a beagle dog at 100 mg once a day, and then the biokinetics of the drug was confirmed.
Specifically, 100 mg of the crystal form I compound was orally administered to the beagle dog, and blood was collected at a predetermined time, so as to measure a concentration of (S)-4-((1-(4,8-dichloro-1-oxo-2-phenyl-1,2-dihydroisoquinoline-3-yl)ethyl)amino)pyrido[2,3-d]pyrimidine-5(8H)-one. With respect to pharmacokinetic parameters, the BA Calc 2007 program was used to calculate an area under the plasma concentration-time curve from dosing time to final plasma concentration quantification time t (AUCt), area under the plasma concentration-time curve from dosing time to infinite time (AUCi), peak plasma concentration (Cmax), time for maximum plasma concentration (Tmax), and terminal elimination half-life (t1/2). As a result, a significance between substances was confirmed by Student t-test (SPSS) at a 95% confidence interval, and the results thereof are shown in table 2 below.

[3] = Hygroscopicity (Dynamic Vapor Sorption, DVS) measurement; type: physicochemical; conditions: 25° C.; for hygroscopicity (overall assessment): DVS 0 to 95 % RH
Description: The hygroscopicity was tested by using the crystal form I of above Example 8.
i) Model name: DVS Intrinsic (Surface Measurement Systems LTD. UK)
ii) Humidity: Initial 0% maximum 95%
iii) Experiment time: 7 hours
After placing a certain amount (10 mg) of the crystal form I compound prepared in Example 8 on a sample pan in a sample chamber, nitrogen was flowed through a tube connected into the sample chamber for the first one hour so as to remove moisture in the chamber and moisture of the sample. Humidity in the chamber was controlled by controlling water vapor, and target relative humidity was increased step by step from initial 0% to 10% every 20 minutes, so as to measure a moisture content of crystal form I for 205 min. A mass of the sample was measured […] (from 0% RH to 95% RH) to collect data at 10% RH intervals, and a change in weight of the sample according to the increase and decrease of humidity was graphed.

[4] = Accelerated stability test (HPLC impurities, content, crystal form); type: physicochemical; conditions: for Crystal form / Content / Individual impurity / Total impurity: 4θ±2° C. and RH 75±5%; for Content / Individual impurity / Total impurity: wt %
Description: The powder of the crystal form I compound according to above Example 8 was doubly packed with an LDPE bag, then packed with a paperboard tube, and left alone at 4θ±2° C. and RH 75±5% for zero and six months, after which impurities were measured by using a high speed liquid chromatography under the following conditions.
<HPLC Conditions> • Detector: Ultraviolet absorption spectrophotometer (wavelength: 307 nm) • Column: Kromasil 100-5C18 (4.6×250 mm, […]) or a column similar thereto • Column temperature: 25° C. • Injection amount: 10 μl • Mobile phase: Mobile phase A—20 mmol/L of ammonium acetate buffer solution (pH 4.5, acetic acid), Mobile phase B—acetonitrile:methanol=8:2

[5] = Stress stability test (temperature / humidity); type: physicochemical; conditions: for Content / Individual impurity / Total impurity: wt %
Description: The crystal form I prepared in above Example 8 was left alone under the stress conditions (temperature: 60° C., humidity: 40° C., RH75%) for 0, 7 and 14 days, after which impurities were measured by using high speed liquid chromatography.

[6] = stress: humidity (40° C., RH75%), 7 days
[7] = stress: humidity (40° C., RH75%), 14 days
[8] = stress: humidity (40° C., RH75%), zero day (initial)
[9] = stress: temperature (60° C.), 7 days
[10] = stress: temperature (60° C.), 14 days
[11] = stress: temperature (60° C.), zero day (initial)

In the case of `C[C@H](Nc1ncnc2[nH]ccc(=O)c12)c1c(Cl)c2cccc(Cl)c2c(=O)n1-c1ccccc1` [Crystal form I, (S)-4-((1-(4,8-dichloro-1-oxo-2-phenyl-1,2-dihydroisoquinoline-3-yl)ethyl)amino)pyrido[2,3-d]pyrimidin-5(8H)-one], the Content ([1]; six months) is reported as 99.7%, the Individual impurity ([1]; six months) is reported as 0.02% and the Total impurity ([1]; six months) is reported as 0.15%. It also gave a Content ([1]; zero month (initial)) of 100.0%, an Individual impurity ([1]; zero month (initial)) of 0.02% and a Total impurity ([1]; zero month (initial)) of 0.14%. The Crystal form ([1]; six months) was “Form I”, the Crystal form ([1]; zero month (initial)) was “Form I” and the “change of impurities and content (in words)” value (“change” below) ([1]; long-term conditions, six months) was “neither significant change nor change with time”. For the same compound, the “bioavailability (in words)” value [2] was “excellent bioavailability”, the “concentration in blood (in words)” value [2] was “high concentration in blood” and the AUC(0-inf) ([2]; plasma) was 559 ng·h/mL. The AUC(0-t) ([2]; plasma) was 540 ng·h/mL, the Cmax ([2]; plasma) was 215 ng/mL and the Tmax ([2]; plasma) was 1.25 h. The half-life ([2]; plasma) was 1.56 h, the “hygroscopicity (overall assessment)” value [3] was “non-hygroscopicity” and the “hygroscopicity (overall assessment)” value ([3]; listed as crystal form I) was “remarkably excellent non-hygroscopicity”. For the same compound, the water (moisture) content by DVS ([3]; relative humidity 0.0 %) was 0.01%, the water (moisture) content by DVS ([3]; relative humidity 10.0 %) was 0.06% and the water (moisture) content by DVS ([3]; relative humidity 20.0 %) was 0.11%. For the same compound, the water (moisture) content by DVS ([3]; relative humidity 30.0 %) was 0.16%, the water (moisture) content by DVS ([3]; relative humidity 40.0 %) was 0.2% and the water (moisture) content by DVS ([3]; relative humidity 50.0 %) was 0.24%. The water (moisture) content by DVS ([3]; relative humidity 60.0 %) was 0.28%, the water (moisture) content by DVS ([3]; relative humidity 70.0 %) was 0.33% and the water (moisture) content by DVS ([3]; relative humidity 80.0 %) was 0.38%. For the same compound, the water (moisture) content by DVS ([3]; relative humidity 90.0 %) was 0.46%, the water (moisture) content by DVS ([3]; relative humidity 95.0 %) was 0.54% and the Crystal form ([4]; six months) was “Form I”. For the same compound, the Content ([4]; six months) was 99.7%, the Individual impurity ([4]; six months) was 0.02% and the Total impurity ([4]; six months) was 0.16%. The Crystal form ([4]; zero month (initial)) was “Form I”, the Content ([4]; zero month (initial)) was 100.0% and the Individual impurity ([4]; zero month (initial)) was 0.02%. For the same compound, the Total impurity ([4]; zero month (initial)) was 0.14%, the “change” value ([4]; accelerated conditions, six months) was “neither significant change nor change with time” and the “change” value ([5]; stress conditions, 0, 7 and 14 days) was “neither significant change nor change with time”. It also gave a Content [5, 6] of 99.6%, an Individual impurity [5, 6] of 0.58% and a Total impurity [5, 6] of 0.64%. It also gave a Content [5, 7] of 100.8%, an Individual impurity [5, 7] of 0.58% and a Total impurity [5, 7] of 0.65%. It also gave a Content [5, 8] of 99.1%, an Individual impurity [5, 8] of 0.58% and a Total impurity [5, 8] of 0.66%. It also gave a Content [5, 9] of 100.0%, an Individual impurity [5, 9] of 0.58% and a Total impurity [5, 9] of 0.64%. For the same compound, the Content [5, 10] was 99.7%, the Individual impurity [5, 10] was 0.58% and the Total impurity [5, 10] was 0.65%. It also gave a Content [5, 11] of 99.1%, an Individual impurity [5, 11] of 0.58% and a Total impurity [5, 11] of 0.66%.
